Source: paper PMC6437697 (Journal of Medicinal Chemistry, 2019)

What was measured:
Test in all cases: KINOMEscan
Assay type in all cases: binding
CDK3 = molecular target: T1, CDK3 (Homo sapiens, UniProt Q00526); details: read-out: % control activity remaining
T1 construct: purchased Eurofins DiscoverX KINOMEscan

ERK8 = molecular target: T2, ERK8 (Homo sapiens, UniProt Q8TD08); details: read-out: % control activity remaining
T2 construct: purchased Eurofins DiscoverX KINOMEscan
T2 sequence (Q8TD08 1-544): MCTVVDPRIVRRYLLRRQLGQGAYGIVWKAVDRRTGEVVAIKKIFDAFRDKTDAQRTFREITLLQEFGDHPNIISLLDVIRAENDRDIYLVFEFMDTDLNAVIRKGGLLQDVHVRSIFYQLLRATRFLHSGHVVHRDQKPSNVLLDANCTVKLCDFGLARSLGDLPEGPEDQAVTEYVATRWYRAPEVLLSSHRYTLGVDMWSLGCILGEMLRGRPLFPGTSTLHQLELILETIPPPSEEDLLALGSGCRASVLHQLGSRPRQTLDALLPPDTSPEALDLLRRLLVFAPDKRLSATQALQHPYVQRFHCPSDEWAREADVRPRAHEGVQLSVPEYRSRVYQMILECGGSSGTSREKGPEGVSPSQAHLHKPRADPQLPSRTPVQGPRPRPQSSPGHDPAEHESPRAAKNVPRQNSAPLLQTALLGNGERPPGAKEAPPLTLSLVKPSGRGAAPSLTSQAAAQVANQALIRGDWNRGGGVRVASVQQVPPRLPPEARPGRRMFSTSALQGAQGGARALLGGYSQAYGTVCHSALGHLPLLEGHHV

MLCK = molecular target: T3, MLCK (Homo sapiens, UniProt Q32MK0); details: for remaining binding at 1 µM: read-out: % control activity remaining
T3 construct: purchased Eurofins DiscoverX KINOMEscan
T3 sequence (Q32MK0 1-819): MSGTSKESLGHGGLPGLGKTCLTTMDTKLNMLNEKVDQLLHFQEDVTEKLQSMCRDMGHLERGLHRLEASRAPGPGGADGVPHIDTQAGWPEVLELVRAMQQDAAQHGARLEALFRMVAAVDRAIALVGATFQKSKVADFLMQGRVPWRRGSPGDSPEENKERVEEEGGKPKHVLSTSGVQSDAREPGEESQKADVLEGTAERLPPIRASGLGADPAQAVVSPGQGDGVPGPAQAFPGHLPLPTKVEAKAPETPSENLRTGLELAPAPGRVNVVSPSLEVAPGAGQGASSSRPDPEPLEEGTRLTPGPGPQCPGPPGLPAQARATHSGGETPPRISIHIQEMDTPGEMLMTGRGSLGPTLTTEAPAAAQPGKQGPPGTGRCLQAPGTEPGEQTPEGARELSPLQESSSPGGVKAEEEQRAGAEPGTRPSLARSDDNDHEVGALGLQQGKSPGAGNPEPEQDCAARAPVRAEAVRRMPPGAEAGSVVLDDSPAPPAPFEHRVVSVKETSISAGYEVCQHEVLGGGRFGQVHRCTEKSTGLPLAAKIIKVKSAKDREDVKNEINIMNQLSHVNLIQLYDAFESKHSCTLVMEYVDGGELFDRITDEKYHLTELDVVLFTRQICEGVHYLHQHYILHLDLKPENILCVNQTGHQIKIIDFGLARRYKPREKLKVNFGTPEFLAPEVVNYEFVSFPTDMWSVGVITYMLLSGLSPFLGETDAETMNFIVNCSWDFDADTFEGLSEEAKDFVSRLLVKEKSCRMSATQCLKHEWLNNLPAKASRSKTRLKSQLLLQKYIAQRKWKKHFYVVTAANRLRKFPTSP

PIK3CA(C420R) = molecular target: T4, PIK3CA(C420R) (Homo sapiens, UniProt P42336, C420R); details: read-out: % control activity remaining
T4 construct: purchased Eurofins DiscoverX KINOMEscan
T4 sequence (P42336 whole entry C420R): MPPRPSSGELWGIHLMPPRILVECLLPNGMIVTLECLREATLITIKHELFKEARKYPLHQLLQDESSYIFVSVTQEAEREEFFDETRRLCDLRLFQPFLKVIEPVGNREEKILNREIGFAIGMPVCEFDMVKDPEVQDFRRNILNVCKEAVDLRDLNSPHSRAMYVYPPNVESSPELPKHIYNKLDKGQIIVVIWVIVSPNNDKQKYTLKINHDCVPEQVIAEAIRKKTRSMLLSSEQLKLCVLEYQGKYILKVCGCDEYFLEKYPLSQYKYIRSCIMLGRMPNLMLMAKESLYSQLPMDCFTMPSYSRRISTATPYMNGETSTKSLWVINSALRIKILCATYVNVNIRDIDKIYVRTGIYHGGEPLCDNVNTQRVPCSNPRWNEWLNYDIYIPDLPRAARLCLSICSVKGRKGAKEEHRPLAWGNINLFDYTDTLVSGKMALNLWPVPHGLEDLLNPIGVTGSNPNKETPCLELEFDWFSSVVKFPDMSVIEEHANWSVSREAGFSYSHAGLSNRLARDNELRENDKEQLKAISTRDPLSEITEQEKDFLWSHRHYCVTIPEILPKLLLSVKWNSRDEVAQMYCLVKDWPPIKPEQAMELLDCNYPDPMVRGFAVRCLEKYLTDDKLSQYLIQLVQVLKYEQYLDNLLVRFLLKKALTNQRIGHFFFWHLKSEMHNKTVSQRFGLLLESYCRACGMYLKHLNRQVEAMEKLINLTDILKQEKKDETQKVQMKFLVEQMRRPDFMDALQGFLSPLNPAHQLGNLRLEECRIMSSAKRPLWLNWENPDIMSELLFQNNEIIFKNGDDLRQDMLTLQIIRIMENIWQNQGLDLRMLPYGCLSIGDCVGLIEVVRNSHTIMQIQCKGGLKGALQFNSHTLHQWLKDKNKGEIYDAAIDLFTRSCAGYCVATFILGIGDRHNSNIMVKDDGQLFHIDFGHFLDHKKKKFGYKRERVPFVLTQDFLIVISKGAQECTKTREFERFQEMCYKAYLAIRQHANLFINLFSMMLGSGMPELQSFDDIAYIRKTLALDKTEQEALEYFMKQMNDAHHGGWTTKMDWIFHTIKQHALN

RIPK5 = molecular target: T5, RIPK5 (Homo sapiens, UniProt Q6XUX3); details: read-out: % control activity remaining
T5 construct: purchased Eurofins DiscoverX KINOMEscan
T5 sequence (Q6XUX3 1-929): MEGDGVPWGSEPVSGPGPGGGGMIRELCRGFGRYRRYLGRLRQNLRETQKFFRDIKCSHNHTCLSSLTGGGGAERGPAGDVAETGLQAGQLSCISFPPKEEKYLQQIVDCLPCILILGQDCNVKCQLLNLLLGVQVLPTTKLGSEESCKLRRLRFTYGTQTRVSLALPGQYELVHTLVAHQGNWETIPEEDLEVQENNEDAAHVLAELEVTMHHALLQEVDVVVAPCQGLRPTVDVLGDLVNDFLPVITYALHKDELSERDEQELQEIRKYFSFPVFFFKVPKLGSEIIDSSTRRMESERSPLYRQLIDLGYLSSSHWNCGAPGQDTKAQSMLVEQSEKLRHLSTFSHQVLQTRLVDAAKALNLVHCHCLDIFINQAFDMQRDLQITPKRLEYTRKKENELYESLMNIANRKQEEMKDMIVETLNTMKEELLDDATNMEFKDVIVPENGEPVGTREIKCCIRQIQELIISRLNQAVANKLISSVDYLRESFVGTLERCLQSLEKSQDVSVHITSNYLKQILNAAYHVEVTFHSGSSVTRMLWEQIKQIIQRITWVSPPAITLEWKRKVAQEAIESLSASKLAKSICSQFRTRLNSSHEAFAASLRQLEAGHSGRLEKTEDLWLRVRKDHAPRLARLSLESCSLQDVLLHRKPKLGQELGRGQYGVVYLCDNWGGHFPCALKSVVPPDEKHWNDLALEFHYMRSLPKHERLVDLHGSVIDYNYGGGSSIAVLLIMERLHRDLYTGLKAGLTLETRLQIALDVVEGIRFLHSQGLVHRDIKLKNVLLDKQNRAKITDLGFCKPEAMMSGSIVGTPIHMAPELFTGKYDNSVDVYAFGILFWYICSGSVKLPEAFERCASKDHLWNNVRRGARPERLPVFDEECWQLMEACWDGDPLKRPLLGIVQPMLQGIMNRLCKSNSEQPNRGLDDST

T1 sequence (Q00526 whole entry): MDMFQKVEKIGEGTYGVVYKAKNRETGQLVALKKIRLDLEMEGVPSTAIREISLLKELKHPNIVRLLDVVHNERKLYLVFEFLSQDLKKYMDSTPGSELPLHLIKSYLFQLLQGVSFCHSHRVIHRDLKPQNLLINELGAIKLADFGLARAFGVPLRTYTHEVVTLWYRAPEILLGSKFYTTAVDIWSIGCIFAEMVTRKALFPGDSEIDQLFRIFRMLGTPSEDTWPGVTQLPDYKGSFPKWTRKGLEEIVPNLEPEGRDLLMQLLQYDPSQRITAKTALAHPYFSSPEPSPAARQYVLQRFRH

SMILES | remaining binding at 1 µM (CDK3) [%] | remaining binding at 1 µM (ERK8) [%] | remaining binding at 1 µM (MLCK) [%] | remaining binding at 1 µM (PIK3CA(C420R)) [%] | remaining binding at 1 µM (RIPK5) [%] | inhibition at 1 µM (MLCK; read-out: Probe binding inhibited) [%]
CN1CCC(CNc2cc(Cl)nn3c(-c4cc5nc(Nc6ccccc6)[nH]c5cc4F)cnc23)CC1 [compound 31, 6-Chloro-3-(6-fluoro-2-(phenylamino)-1H-benzo[d]imidazol-5-yl)-N-((1-methylpiperidin-4-yl)methyl)imidazo[1,2-b]pyridazin-8-amine] | 97 | 100 | 89 | 85 | 79 | –
O=C(CN1CCOCC1)N[C@H]1CC[C@H](Nc2cc(Cl)nn3c(-c4ccc5[nH]ncc5c4)cnc23)CC1 [compound 26] | 90 | 81 | 6.6 | 89 | 91 | > 90
Clc1cc(NCC2CC2)c2ncc(-c3ccc4[nH]ncc4c3)n2n1 [compound 2, 6-Chloro-N-(cyclopropylmethyl)-3-(1H-indazol-5-yl)imidazo[1,2-b]pyridazin-8-amine] | 95 | 87 | 80 | 88 | 98 | –
